Measured values taken from patent US11986471B2, “Compounds and methods of use” (Tango Therapeutics, Inc., priority 2018, dated 2024).

Experiments:
[1] = molecular target: T1, PRMT5 (Homo sapiens, UniProt O14744); experiment: PRMT5 IC50 assay in the presence of SAM as cofactor; assay type: biochemical
T1 construct: purchased Viva (custom protein)
How it was run: (§1)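 Three cofactor conditions tested for PRMT5 inhibition: none, MTA and SAM, each giving an IC50. For conversion to Ki, the MTA-condition IC50 is divided by 13.5 and the SAM-condition IC50 by 1.5, and the two Ki values are expressed as a SAM/MTA ratio.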

[2] = molecular target: T1, PRMT5; experiment: PRMT5 IC50 assay with no cofactor; assay type: biochemical; details: read-out: No Co-factor IC50
How it was run: as §1

[3] = molecular target: T1, PRMT5; experiment: PRMT5 IC50 assay in the presence of MTA as cofactor; assay type: biochemical; details: for IC50: PRMT5, MTA as cofactor; for SAM/MTA Ratio: ratio between Ki in the presence of SAM and Ki in the presence of MTA
How it was run: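 Ki conversion: SAM arm, Ki=IC50/1.5; MTA arm, Ki=IC50/13.5. No-cofactor arm reported as IC50 only. Selectivity expressed as Ki(SAM)/Ki(MTA).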

[4] = system: HAP1 MTAP-intact; experiment: SDMA in-cell western assay, HAP1 MTAP-intact cell line; assay type: cell-based; details: Homo sapiens
How it was run: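 Cells from two matched HAP1 lines, MTAP-null and MTAP-expressing at endogenous levels, are treated with compound. SDMA is then quantified by in-cell western and an IC50 is calculated for each line.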

[5] = system: HAP1 MTAP-deleted; experiment: SDMA in-cell western assay, HAP1 MTAP-deleted cell line; assay type: cell-based; details: for IC50: Homo sapiens, HAP1 MTAP-deleted cell line; for MTAP Intact/Deleted Ratio: IC50 ratio HAP1 MTAP-intact / HAP1 MTAP-deleted
How it was run: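 MTAP-null HAP1 cells, the deleted member of an isogenic pair with endogenously MTAP-expressing HAP1, are treated with compound. SDMA is then quantified by in-cell western and an IC50 is calculated.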

T1 sequence (O14744 whole entry): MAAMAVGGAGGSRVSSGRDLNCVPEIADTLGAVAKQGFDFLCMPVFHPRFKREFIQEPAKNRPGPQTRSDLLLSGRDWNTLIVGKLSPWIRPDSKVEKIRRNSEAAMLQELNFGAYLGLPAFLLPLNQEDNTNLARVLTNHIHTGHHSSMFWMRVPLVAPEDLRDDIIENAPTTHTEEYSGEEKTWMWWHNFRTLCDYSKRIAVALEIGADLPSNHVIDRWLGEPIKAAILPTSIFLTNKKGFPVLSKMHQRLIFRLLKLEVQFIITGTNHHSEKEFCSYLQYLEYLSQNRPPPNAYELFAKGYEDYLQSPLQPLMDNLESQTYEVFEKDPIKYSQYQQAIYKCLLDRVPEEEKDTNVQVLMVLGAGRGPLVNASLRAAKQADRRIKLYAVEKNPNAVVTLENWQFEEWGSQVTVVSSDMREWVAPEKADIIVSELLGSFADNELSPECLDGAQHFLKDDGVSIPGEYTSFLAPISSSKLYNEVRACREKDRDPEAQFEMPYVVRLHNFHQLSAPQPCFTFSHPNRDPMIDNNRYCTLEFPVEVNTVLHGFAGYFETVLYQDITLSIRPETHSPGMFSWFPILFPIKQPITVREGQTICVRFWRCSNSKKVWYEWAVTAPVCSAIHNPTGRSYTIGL
T1 sequence (Q9BQA1 whole entry partner): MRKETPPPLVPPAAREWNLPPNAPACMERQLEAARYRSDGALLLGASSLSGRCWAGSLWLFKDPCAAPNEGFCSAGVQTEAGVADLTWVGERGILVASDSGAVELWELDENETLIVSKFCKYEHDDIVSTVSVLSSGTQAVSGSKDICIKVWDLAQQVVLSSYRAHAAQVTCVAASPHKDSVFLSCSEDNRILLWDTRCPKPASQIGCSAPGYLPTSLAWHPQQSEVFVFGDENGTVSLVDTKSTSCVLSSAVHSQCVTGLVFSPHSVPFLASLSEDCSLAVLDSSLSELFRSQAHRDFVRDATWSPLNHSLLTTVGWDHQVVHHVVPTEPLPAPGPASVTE

IC50 [1] [nM] | IC50 [2] [nM] | IC50 [3] [nM] | IC50 [4] [nM] | IC50 [5] [nM] | Structure (SMILES) | SAM/MTA Ratio [3] | MTAP Intact/Deleted Ratio [5]
50 to 500 | 500 to 5000 | 50 to 500 | ≥ 10000 | < 1000 | CCN1CCN(c2cc(C(=O)NC[C@H](O)CN3CCc4c(ccc(OCc5ocnc5C)c4C)C3)cc(NC3CCC3)n2)CC1 [Compound 394, 2-(cyclobutylamino)-6-(4-ethylpiperazin-1-yl)-N-[(2S)-2-hydroxy-3-{5-methyl-6-[(4-methyl-1,3-oxazol-5-yl)methoxy]-1,2,3,4-tetrahydroisoquinolin-2-yl}propyl]pyridine-4-carboxamide] | A (a Ki ratio greater than or equal to 10 fold between the Ki in the presence of SAM and the Ki in the presence of MTA) | A* (an IC50 ratio greater than or equal to 10 fold between the IC50 in the HAP1 MTAP-intact cell line and the HAP1 MTAP-deleted cell line)
500 to 5000 | ≥ 5000 | 50 to 500 | ≥ 10000 | 1000 to 10000 | O=C(NC[C@H](O)CN1CCc2cc(OCc3cnco3)ccc2C1)c1cc(NC2CCCCC2)ncn1 [Compound 395, (S)-6-(cyclohexylamino)-N-(2-hydroxy-3-(6-(oxazol-5-ylmethoxy)-3,4-dihydroisoquinolin-2(1H)-yl)propyl)pyrimidine-4-carboxamide] | A (a Ki ratio greater than or equal to 10 fold between the Ki in the presence of SAM and the Ki in the presence of MTA) | 
50 to 500 | 500 to 5000 | 50 to 500 | 1000 to 10000 | < 1000 | Cc1ncoc1COc1ccc2c(c1)CCN(C[C@@H](O)CNC(=O)c1cc(NC3COC3)nc(N3CCN(C(C)(C)C)CC3)n1)C2 [Compound 396, 2-(4-tert-butylpiperazin-1-yl)-N-[(2S)-2-hydroxy-3-(6-[(4-methyl-1,3-oxazol-5-yl)methoxy]-1,2,3,4-tetrahydroisoquinolin-2-yl}propyl]-6-[(oxetan-3-yl)amino]pyrimidine-4-carboxamide] | A (a Ki ratio greater than or equal to 10 fold between the Ki in the presence of SAM and the Ki in the presence of MTA) | C* (an IC50 ratio of less than 3 fold between the IC50 in the HAP1 MTAP-intact cell line and the HAP1 MTAP-deleted cell line)
50 to 500 | 500 to 5000 | 50 to 500 | 1000 to 10000 | < 1000 | CCC(=O)N1CCN(c2cc(C(=O)NC[C@H](O)CN3CCc4cc(OCc5cnco5)ccc4C3)cc(NC3CCC3)n2)CC1 [Compound 397, (S)-2-(cyclobutylamino)-N-(2-hydroxy-3-(6-(oxazol-5-ylmethoxy)-3,4-dihydroisoquinolin-2(1H)-yl)propyl)-6-(4-propionylpiperazin-1-yl)isonicotinamide] | A (a Ki ratio greater than or equal to 10 fold between the Ki in the presence of SAM and the Ki in the presence of MTA) | C* (an IC50 ratio of less than 3 fold between the IC50 in the HAP1 MTAP-intact cell line and the HAP1 MTAP-deleted cell line)
50 to 500 | ≥ 5000 | 50 to 500 | ≥ 10000 | 1000 to 10000 | COCCN(C)c1nc(NC2COC2)cc(C(=O)NC[C@H](O)CN2CCc3c(ccc(OCc4ocnc4C)c3C)C2)n1 [Compound 398, N-[(2S)-2-hydroxy-3-{5-methyl-6-[(4-methyl-1,3-oxazol-5-yl)methoxy]-1,2,3,4-tetrahydroisoquinolin-2-yl}propyl]-2-[(2-methoxyethyl)(methyl)amino]-6-[(oxetan-3-yl)amino]pyrimidine-4-carboxamide] | A (a Ki ratio greater than or equal to 10 fold between the Ki in the presence of SAM and the Ki in the presence of MTA) | B* (an IC50 ratio greater than or equal to 3 fold but lower than 10 fold between the IC50 in the HAP1 MTAP-intact cell line and the HAP1 MTAP-deleted cell line)

The next lines start with the compound.

Structure (SMILES) | IC50 [1] [nM] | IC50 [2] [nM] | IC50 [3] [nM] | IC50 [4] [nM] | IC50 [5] [nM] | SAM/MTA Ratio [3] | MTAP Intact/Deleted Ratio [5]
Cc1ncoc1COc1ccc2c(c1)CCN(C[C@@H](O)CNC(=O)c1cc(NC3COC3)nc(N3CCN(C)CC3)n1)C2 [Compound 387] | 50 to 500 | 500 to 5000 | 50 to 500 | 1000 to 10000 | < 1000 | A (a Ki ratio greater than or equal to 10 fold between the Ki in the presence of SAM and the Ki in the presence of MTA) | B* (an IC50 ratio greater than or equal to 3 fold but lower than 10 fold between the IC50 in the HAP1 MTAP-intact cell line and the HAP1 MTAP-deleted cell line)
Cc1ncoc1COc1ccc2c(c1)CCN(C[C@@H](O)CNC(=O)c1cc(NC3CCCCC3)ncn1)C2 [Compound 388, 6-(cyclohexylamino)-N-[(2S)-2-hydroxy-3-{6-[(4-methyl-1,3-oxazol-5-yl)methoxy]-1,2,3,4-tetrahydroisoquinolin-2-yl}propyl]pyrimidine-4-carboxamide] | 50 to 500 | ≥ 5000 | 50 to 500 | < 1000 | < 1000 | A (a Ki ratio greater than or equal to 10 fold between the Ki in the presence of SAM and the Ki in the presence of MTA) | B* (an IC50 ratio greater than or equal to 3 fold but lower than 10 fold between the IC50 in the HAP1 MTAP-intact cell line and the HAP1 MTAP-deleted cell line)
CCC(=O)N1CCN(c2cc(C(=O)NC[C@H](O)CN3CCc4cc(OCc5ocnc5C)ccc4C3)cc(NC3CCC3)n2)CC1 [Compound 389, 2-(cyclobutylamino)-N-[(2S)-2-hydroxy-3-{6-[(4-methyl-1,3-oxazol-5-yl)methoxy]-1,2,3,4-tetrahydroisoquinolin-2-yl}propyl]-6-(4-propanoylpiperazin-1-yl)pyridine-4-carboxamide] | 50 to 500 | 500 to 5000 | 50 to 500 | < 1000 | < 1000 | A (a Ki ratio greater than or equal to 10 fold between the Ki in the presence of SAM and the Ki in the presence of MTA) | B* (an IC50 ratio greater than or equal to 3 fold but lower than 10 fold between the IC50 in the HAP1 MTAP-intact cell line and the HAP1 MTAP-deleted cell line)
CCCN(C)c1nc(NC2COC2)cc(C(=O)NC[C@H](O)CN2CCc3cc(OCc4ocnc4C)ccc3C2)n1 [Compound 390, N-[(2S)-2-hydroxy-3-{6-[(4-methyl-1,3-oxazol-5-yl)methoxy]-1,2,3,4-tetrahydroisoquinolin-2-yl}propyl]-2-[methyl(propyl)amino]-6-[(oxetan-3-yl)amino]pyrimidine-4-carboxamide] | 50 to 500 | 500 to 5000 | 50 to 500 | < 1000 | < 1000 | A (a Ki ratio greater than or equal to 10 fold between the Ki in the presence of SAM and the Ki in the presence of MTA) | C* (an IC50 ratio of less than 3 fold between the IC50 in the HAP1 MTAP-intact cell line and the HAP1 MTAP-deleted cell line)
Cc1ncoc1COc1ccc2c(c1C)CCN(C[C@@H](O)CNC(=O)c1cc(NC3COC3)nc(N3CCCCC3)n1)C2 [Compound 391, N-[(2S)-2-hydroxy-3-{5-methyl-6-[(4-methyl-1,3-oxazol-5-yl)methoxy]-1,2,3,4-tetrahydroisoquinolin-2-yl}propyl]-6-[(oxetan-3-yl)amino]-2-(piperidin-1-yl)pyrimidine-4-carboxamide] | 50 to 500 | ≥ 5000 | 50 to 500 | ≥ 10000 | < 1000 | A (a Ki ratio greater than or equal to 10 fold between the Ki in the presence of SAM and the Ki in the presence of MTA) | A* (an IC50 ratio greater than or equal to 10 fold between the IC50 in the HAP1 MTAP-intact cell line and the HAP1 MTAP-deleted cell line)
Cc1ncoc1COc1ccc2c(c1)CCN(C[C@@H](O)CNC(=O)c1ccc(OC3CCN(Cc4ccccc4)CC3)cc1)C2 [Compound 392] | 50 to 500 | 500 to 5000 | 50 to 500 | < 1000 | < 1000 | A (a Ki ratio greater than or equal to 10 fold between the Ki in the presence of SAM and the Ki in the presence of MTA) | C* (an IC50 ratio of less than 3 fold between the IC50 in the HAP1 MTAP-intact cell line and the HAP1 MTAP-deleted cell line)
Cc1c(OCc2cnco2)ccc2c1CCN(C[C@@H](O)CNC(=O)c1cc(NC3CCCC3)ncn1)C2 [Compound 393, 6-(cyclopentylamino)-N-[(2S)-2-hydroxy-3-{5-methyl-6-[(1,3-oxazol-5-yl)methoxy]-1,2,3,4-tetrahydroisoquinolin-2-yl}propyl]pyrimidine-4-carboxamide] | 500 to 5000 | ≥ 5000 | 500 to 5000 | ≥ 10000 | ≥ 10000 | A (a Ki ratio greater than or equal to 10 fold between the Ki in the presence of SAM and the Ki in the presence of MTA) | C* (an IC50 ratio of less than 3 fold between the IC50 in the HAP1 MTAP-intact cell line and the HAP1 MTAP-deleted cell line)
